The values that follow come from patent publication US6818663B2, “Diaminothiazoles” (Hoffmann-La Roches, priority 2002, dated 2004).

The target of experiment [1] is human cyclin D1-CDK4 (Homo sapiens, UniProt P11802). Put plainly: FlashPlate kinase assay, cyclin D1-CDK4, Rb substrate. It counts as biochemical. The following applies: recombinant cyclin D1-CDK4, Rb phosphorylation, 1 μM ATP. The method in brief:
(§1)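 Recombinant human cyclin–CDK complexes, co-expressed in insect cells, phosphorylated His-tagged Rb (aa 386-928) coated on FlashPlates at 10 μg/ml. Reaction used 1 μM ATP plus 4 nM ^33P-ATP and 20 mM MgCl2 for 30 min at room temperature. % inhibition came from scintillation counts against no-enzyme and no-compound wells, and IC50 was the concentration halving radiolabel incorporation.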

Experiment [2] deals with human cyclin B-CDK1 (Homo sapiens, UniProt P06493). Kind of experiment: FlashPlate kinase assay, cyclin B-CDK1, Rb substrate. It counts as biochemical. The following applies: recombinant cyclin B-CDK1, Rb phosphorylation, 1 μM ATP. The method in brief:
as §1

Experiment [3] has as its system HCT116, a colorectal carcinoma cell line. Put plainly: Tetrazolium dye proliferation assay (MTT assay). It counts as cell-based. As to conditions: Homo sapiens, HCT-116, HCT116 cells, inhibition of cell proliferation. How it is done:
Proliferation was evaluated by the tetrazolium dye assay according to the procedure of Denizot and Lang (Denizot, F. and Lang, R. J Immunol Methods 1986, 89, 271-277). The cell line used was HCT116, a colorectal carcinoma cell line obtained from the American Type Cell Culture Collection (ATCC; Rockville, Md.). The cells were grown in McCoy's 5A medium supplemented with 10% FCS and L-glutamine.
Cells were plated at the appropriate seeding density to give logarithmic growth over the course of the assay in a 96-well tissue culture plate. Plates were incubated overnight at 37° C. in a humidified incubator with 5% CO2. The next day, test compounds were serially diluted to four times the final concentration in the appropriate medium containing 1.2% DMSO. One-fourth final volume of each dilution was added in duplicate to the plates containing cells. The same volume of 1.2% DMSO in medium was added to a row of “control wells” such that the final concentration of DMSO in each well was 0.3%. Wells to which no cells were added served as the “blank.” Wells to which no inhibitor was added served as “no inhibitor control.” The plates were) returned to the incubator, and at set time points (determined by their growth curves) plates were analyzed as described below.
3-(4,5-dimethylthiazole-2-yl)-2,5-diphenyl-2H-tetrazolium bromide (thiazolyl blue; MTT; Sigma) was added to each well to yield a final concentration of 1 mg/ml. Plates were returned to the incubator for 2.5-3 hours at 37° C. The MTT-containing medium was removed and the resulting formazan metabolite was solubilized in 100% ethanol with shaking for 15 minutes at room temperature. Absorbance readings were taken in a microtiter plate reader (Dynatech and Molecular Devices plate readers were used interchangeably) at a wavelength of 570 nm with a 650 nm reference. Percent inhibition (% INH) is calculated by subtracting the absorbance of the blank well from all wells, then subtracting the ratio of the average absorbance of each test duplicate (SAVE) by the average of the controls (CAVE) from 1.00. The final number is then multiplied by 100 (% INH=(1.00−SAVE/CAVE)×100). The concentration at which 50% inhibition of cell proliferation is obtained (the IC50) is determined from the linear regression of a plot of the logarithm of the concentration versus percent inhibition.
(Formazan colour is commonly taken as a measure of viable cells.)

In experiment [4] the target is human cyclin E-CDK2 (Homo sapiens, UniProt P24941). Kind of experiment: FlashPlate kinase assay, cyclin E-CDK2, Rb substrate. It counts as biochemical. As to conditions: recombinant cyclin E-CDK2, Rb phosphorylation, 1 μM ATP. Summed up:
as §1

Sequence of human cyclin B-CDK1 (P06493 whole entry): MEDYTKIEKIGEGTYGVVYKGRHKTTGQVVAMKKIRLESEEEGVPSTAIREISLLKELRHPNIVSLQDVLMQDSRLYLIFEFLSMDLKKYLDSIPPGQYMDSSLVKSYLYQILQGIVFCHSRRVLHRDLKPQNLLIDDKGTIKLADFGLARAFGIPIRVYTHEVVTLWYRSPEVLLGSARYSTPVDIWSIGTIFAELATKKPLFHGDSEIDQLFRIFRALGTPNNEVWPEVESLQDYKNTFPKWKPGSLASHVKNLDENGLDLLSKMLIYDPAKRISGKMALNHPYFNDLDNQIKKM
Sequence of human cyclin B-CDK1 (P14635 whole entry partner): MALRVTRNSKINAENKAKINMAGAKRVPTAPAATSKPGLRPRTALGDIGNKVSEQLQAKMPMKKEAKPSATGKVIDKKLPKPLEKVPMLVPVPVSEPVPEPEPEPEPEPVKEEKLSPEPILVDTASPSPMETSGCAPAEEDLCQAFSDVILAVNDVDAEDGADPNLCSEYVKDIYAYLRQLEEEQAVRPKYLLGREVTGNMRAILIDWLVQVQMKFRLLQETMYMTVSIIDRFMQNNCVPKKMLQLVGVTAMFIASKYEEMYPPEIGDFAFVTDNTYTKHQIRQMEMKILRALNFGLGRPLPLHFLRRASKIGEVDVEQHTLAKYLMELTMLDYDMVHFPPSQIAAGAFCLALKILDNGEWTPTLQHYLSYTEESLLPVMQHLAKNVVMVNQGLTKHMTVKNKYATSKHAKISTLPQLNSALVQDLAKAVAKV
Sequence of human cyclin D1-CDK4 (P11802 whole entry, the tested form may be a part): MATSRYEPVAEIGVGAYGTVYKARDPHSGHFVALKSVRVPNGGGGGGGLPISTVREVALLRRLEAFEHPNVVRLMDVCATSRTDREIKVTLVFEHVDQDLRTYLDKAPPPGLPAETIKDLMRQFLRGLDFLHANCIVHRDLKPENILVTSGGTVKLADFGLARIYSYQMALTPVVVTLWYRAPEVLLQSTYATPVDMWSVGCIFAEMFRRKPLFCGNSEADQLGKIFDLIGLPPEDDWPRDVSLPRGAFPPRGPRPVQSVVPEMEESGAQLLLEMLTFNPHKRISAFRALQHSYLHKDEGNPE
Sequence of human cyclin D1-CDK4 (P24385 whole entry partner, the tested form may be a part): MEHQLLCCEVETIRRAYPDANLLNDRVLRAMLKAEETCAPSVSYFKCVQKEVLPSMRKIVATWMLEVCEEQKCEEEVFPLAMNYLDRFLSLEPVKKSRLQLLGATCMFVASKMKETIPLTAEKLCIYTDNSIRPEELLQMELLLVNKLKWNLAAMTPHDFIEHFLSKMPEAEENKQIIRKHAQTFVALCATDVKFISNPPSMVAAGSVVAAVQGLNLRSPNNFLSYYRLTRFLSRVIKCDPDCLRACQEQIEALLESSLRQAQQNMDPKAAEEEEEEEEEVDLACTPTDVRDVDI

As usually defined, the IC50 is the concentration that gives 50% inhibition. Take `CCc1cccc(C(=O)c2sc(Nc3ccc(OCC(C)(C)N(C)C)cc3)nc2N)c1` [Example 61, [4-Amino-2-[4-(2-dimethylamino-2-methyl-propoxy)-phenylamino]-thiazol-5-yl]-(3-ethyl-phenyl)-methanone]: the IC50 was found to be 46 nM in experiment [1], 1210 nM in experiment [2], 954 nM in experiment [3] and 1560 nM in experiment [4].

With `CCOc1cccc(C(=O)c2sc(Nc3ccc(OCCN4CCCC4)cc3)nc2N)c1` [Example 62, [4-Amino-2-[4-(2-pyrrolidin-1-yl-ethoxy)-phenylamino]-thiazol-5-yl]-(3-ethoxy-phenyl)-methanone], the IC50 worked out at 33 nM in experiment [1], 1810 nM in experiment [2], 1300 nM in experiment [3] and 4440 nM in experiment [4].

Regarding `CCc1cccc(C(=O)c2sc(Nc3ccc(OC[C@@H](C)N(C)C)cc3)nc2N)c1` [Example 63, (R)-[4-Amino-2-[4-(2-dimethylamino-propoxy)-phenylamino]-thiazol-5-yl]-(3-ethyl-phenyl)-methanone], the IC50 amounted to 80 nM in experiment [1], 2570 nM in experiment [2], 623 nM in experiment [3] and 1900 nM in experiment [4].

With `CN(C)CCOc1ccc(Nc2nc(N)c(C(=O)c3cccc(Br)c3)s2)cc1` [Example 65, [4-Amino-2-[4-(2-dimethylamino-ethoxy)-phenylamino]-thiazol-5-yl]-(3-bromo-phenyl)-methanone], the IC50 was 85 nM in experiment [1], 1070 nM in experiment [2], 3240 nM in experiment [3] and 1690 nM in experiment [4].

For the compound `CCc1cccc(C(=O)c2sc(Nc3ccc(OC[C@@H](C)N4CCCC4)cc3)nc2N)c1` [Example 67, (R)-[4-Amino-2-[4-(2-pyrrolidin-1-yl-propoxy)-phenylamino]-thiazol-5-yl]-(3-ethyl-phenyl)-methanone], the IC50 is 70 nM in experiment [1], 2760 nM in experiment [2], 846 nM in experiment [3] and 1480 nM in experiment [4].

As for `C[C@H](COc1ccc(Nc2nc(N)c(C(=O)c3cccc(C4CC4)c3)s2)cc1)N1CCCC1` [Example 68, (R)-[4-Amino-2-[4-(2-pyrrolidin-1-yl-propoxy)-phenylamino]-thiazol-5-yl]-(3-cyclopropyl-phenyl)-methanone], the IC50 was 51 nM in experiment [1], 2070 nM in experiment [2], 1210 nM in experiment [3] and 4540 nM in experiment [4].

`CN(C)CCOc1ccc(Nc2nc(N)c(C(=O)c3cccc(C4CC4)c3)s2)cc1` [Example 69, [4-Amino-2-[4-(2-dimethylamino-ethoxy)-phenylamino]-thiazol-5-yl]-(3-cyclopropyl-phenyl)-methanone]: the IC50 in experiment [1] is 40 nM; in experiment [2], 1780 nM; in experiment [3], 1050 nM; in experiment [4], 2890 nM.

`C[C@H](COc1ccc(Nc2nc(N)c(C(=O)c3cccc(C4CC4)c3)s2)cc1)N(C)C` [Example 70, (R)-[4-Amino-2-[4-(2-dimethylamino-propoxy)-phenylamino]-thiazol-5-yl]-(3-cyclopropyl-phenyl)-methanone]: the half-maximal inhibitory concentration (IC50) in experiment [1] came out at 38 nM; in experiment [2], 2960 nM; in experiment [3], 1930 nM; in experiment [4] it was 3140 nM.

As for `CN(C)C(C)(C)COc1ccc(Nc2nc(N)c(C(=O)c3cccc(C4CC4)c3)s2)cc1` [Example 71, [4-Amino-2-[4-(2-dimethylamino-2-methyl-propoxy)-phenylamino]-thiazol-5-yl]-(3-cyclopropyl-phenyl)-methanone], the concentration for half-maximal inhibition (IC50) in experiment [1] came out at 39 nM; in experiment [2] it was 3860 nM; in experiment [3], 2360 nM; in experiment [4], 2110 nM.

For the compound `Nc1nc(Nc2ccc(OCCN3CCCC3)cc2)sc1C(=O)c1cccc(C2CC2)c1` [Example 72, [4-Amino-2-[4-(2-pyrrolidin-1-yl-ethoxy)-phenylamino]-thiazol-5-yl]-(3-cyclopropyl-phenyl)-methanone], the IC50 in experiment [1] worked out at 37 nM; in experiment [2] it was 1980 nM; in experiment [3], 1380 nM; in experiment [4] it was 1180 nM.

Consider `CCN1CCCC(Oc2ccc(Nc3nc(N)c(C(=O)c4cccc(C)c4)s3)cc2)C1` (stereo not drawn) [Example 78, [4-Amino-2-[4-(1-ethyl-piperidin-3-yloxy)-phenylamino]-thiazol-5-yl]-m-tolyl-methanone], for which the IC50 came to 41 nM in experiment [1], 806 nM in experiment [2], 1510 nM in experiment [3] and 1080 nM in experiment [4].

For the compound `CCc1cccc(C(=O)c2sc(Nc3ccc(OC4CCCN(CC)C4)cc3)nc2N)c1` (stereo not drawn) [Example 79, [4-Amino-2-[4-(1-ethyl-piperidin-3-yloxy)-phenylamino]-thiazol-5-yl]-(3-ethyl-phenyl)-methanone], the IC50 in experiment [1] came out at 23 nM; in experiment [2], 1080 nM; in experiment [3], 1470 nM; in experiment [4], 1170 nM.

Take `CCN1CCCC(Oc2ccc(Nc3nc(N)c(C(=O)c4cccc(C5CC5)c4)s3)cc2)C1` (stereo not drawn) [Example 80, [4-Amino-2-[4-(1-ethyl-piperidin-3-yloxy)-phenylamino]-thiazol-5-yl]-(3-cyclopropyl-phenyl)-methanone]: the IC50 was determined as 19 nM in experiment [1], 1840 nM in experiment [2], 1720 nM in experiment [3] and 2280 nM in experiment [4].

On to `CCN1CCC(Oc2ccc(Nc3nc(N)c(C(=O)c4cccc(C)c4)s3)cc2)C1` (stereo not drawn) [Example 83, [4-Amino-2-[4-(1-ethyl-pyrrolidin-3-yloxy)-phenylamino]-thiazol-5-yl]-m-tolyl-methanone], for which the IC50 in experiment [1] is 49 nM; in experiment [2], 980 nM; in experiment [3] it was 1560 nM; in experiment [4], 499 nM.

In the case of `CCc1cccc(C(=O)c2sc(Nc3ccc(OC4CCN(CC)C4)cc3)nc2N)c1` (stereo not drawn) [Example 84, [4-Amino-2-[4-(1-ethyl-pyrrolidin-3-yloxy)-phenylamino]-thiazol-5-yl]-(3-ethyl-phenyl)-methanone], the IC50 stood at 46 nM in experiment [1], 655 nM in experiment [2], 1510 nM in experiment [3] and 278 nM in experiment [4].

Take `CCN1CCC(Oc2ccc(Nc3nc(N)c(C(=O)c4cccc(C5CC5)c4)s3)cc2)C1` (stereo not drawn) [Example 85, [4-Amino-2-[4-(1-ethyl-pyrrolidin-3-yloxy)-phenylamino]-thiazol-5-yl]-(3-cyclopropyl-phenyl)-methanone]: the IC50 is 51 nM in experiment [1], 1080 nM in experiment [2], 2010 nM in experiment [3] and 887 nM in experiment [4].

For the compound `CCCc1cc(C(=O)c2sc(Nc3ccc(OC4CCCN(CC)C4)cc3)nc2N)ccc1O` (stereo not drawn) [Example 88, [4-Amino-2-[4-(1-ethyl-piperidin-3-yloxy)-phenylamino]-thiazol-5-yl]-(4-hydroxy-3-propyl-phenyl)-methanone; Compound With Acetic Acid], the IC50 in experiment [1] was found to be 39 nM; in experiment [2], 241 nM; in experiment [3] it was 280 nM; in experiment [4] it was 234 nM.

Turning to `CCCc1cc(C(=O)c2sc(Nc3ccc(OC4CCN(CC)C4)cc3)nc2N)ccc1O` (stereo not drawn) [Example 89, [4-Amino-2-[4-(1-ethyl-pyrrolidin-3-yloxy)-phenylamino]-thiazol-5-yl]-(4-hydroxy-3-propyl-phenyl)-methanone; Compound With Acetic Acid], the IC50 in experiment [1] is 19 nM; in experiment [2], 261 nM; in experiment [3] it was 327 nM; in experiment [4], 175 nM.
